What was measured:
[1] = biological target: kinase panel containing either 359 or 386 distinct kinases; experiment: Selectivity score S10 from competition binding against a panel of kinases; conditions: compounds at 10 μM; panel of 386 distinct kinases
Procedure, shortened: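 Compounds were tested at 10 μM in competition binding against T7 phage-fused or HEK-293-expressed DNA-tagged kinases with immobilized affinity ligands, 1 h at room temperature. Bound kinase was quantified by qPCR as percent of DMSO control; S10 is the fraction of distinct kinases (mutants excluded) with POC below 10.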

[2] = biological target: T1, CSF-1R kinase (Homo sapiens, UniProt P07333); experiment: Competition binding assay, CSF-1R Kd
T1 construct: made in house; host or cells: T7 phage display or HEK-293 cells
T1 sequence (P07333 20-972): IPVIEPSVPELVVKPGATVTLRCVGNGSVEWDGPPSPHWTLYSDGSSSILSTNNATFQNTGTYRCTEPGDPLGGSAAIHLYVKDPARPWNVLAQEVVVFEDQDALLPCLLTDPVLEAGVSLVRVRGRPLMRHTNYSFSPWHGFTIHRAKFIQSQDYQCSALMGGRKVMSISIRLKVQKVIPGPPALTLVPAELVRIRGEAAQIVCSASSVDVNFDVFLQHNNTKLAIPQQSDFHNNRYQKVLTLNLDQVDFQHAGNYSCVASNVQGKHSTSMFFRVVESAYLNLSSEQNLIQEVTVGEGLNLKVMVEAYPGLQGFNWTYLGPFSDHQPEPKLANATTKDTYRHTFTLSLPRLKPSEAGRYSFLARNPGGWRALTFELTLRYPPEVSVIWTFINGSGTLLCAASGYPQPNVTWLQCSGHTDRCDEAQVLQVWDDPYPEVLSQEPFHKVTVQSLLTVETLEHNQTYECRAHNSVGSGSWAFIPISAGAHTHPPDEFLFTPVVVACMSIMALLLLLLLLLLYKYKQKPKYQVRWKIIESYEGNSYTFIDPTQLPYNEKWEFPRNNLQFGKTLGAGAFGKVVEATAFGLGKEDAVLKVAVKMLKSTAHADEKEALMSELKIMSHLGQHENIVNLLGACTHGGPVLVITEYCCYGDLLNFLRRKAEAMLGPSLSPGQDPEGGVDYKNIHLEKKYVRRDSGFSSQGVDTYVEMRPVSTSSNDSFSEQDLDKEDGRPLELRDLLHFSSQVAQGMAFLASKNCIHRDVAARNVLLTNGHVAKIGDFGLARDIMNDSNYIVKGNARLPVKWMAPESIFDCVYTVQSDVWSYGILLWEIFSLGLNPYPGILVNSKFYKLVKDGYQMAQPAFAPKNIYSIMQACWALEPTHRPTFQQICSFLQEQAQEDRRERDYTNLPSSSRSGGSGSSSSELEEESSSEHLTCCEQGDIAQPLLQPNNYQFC
Procedure, shortened: (§1)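 Steps: biotinylated ligand loaded on streptavidin magnetic beads 30 min; beads blocked with biotin; kinase, beads and compound combined 1 hour at room temperature; beads washed, eluted 30 min with 0.5 μM free ligand; eluted kinase measured by quantitative PCR. Kd derived from eleven-point threefold dilutions.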

[3] = biological target: T2, FLT3 kinase (Homo sapiens, UniProt P36888); experiment: Competition binding assay, FLT3 Kd
T2 construct: made in house; host or cells: T7 phage display or HEK-293 cells
T2 sequence (P36888 27-993): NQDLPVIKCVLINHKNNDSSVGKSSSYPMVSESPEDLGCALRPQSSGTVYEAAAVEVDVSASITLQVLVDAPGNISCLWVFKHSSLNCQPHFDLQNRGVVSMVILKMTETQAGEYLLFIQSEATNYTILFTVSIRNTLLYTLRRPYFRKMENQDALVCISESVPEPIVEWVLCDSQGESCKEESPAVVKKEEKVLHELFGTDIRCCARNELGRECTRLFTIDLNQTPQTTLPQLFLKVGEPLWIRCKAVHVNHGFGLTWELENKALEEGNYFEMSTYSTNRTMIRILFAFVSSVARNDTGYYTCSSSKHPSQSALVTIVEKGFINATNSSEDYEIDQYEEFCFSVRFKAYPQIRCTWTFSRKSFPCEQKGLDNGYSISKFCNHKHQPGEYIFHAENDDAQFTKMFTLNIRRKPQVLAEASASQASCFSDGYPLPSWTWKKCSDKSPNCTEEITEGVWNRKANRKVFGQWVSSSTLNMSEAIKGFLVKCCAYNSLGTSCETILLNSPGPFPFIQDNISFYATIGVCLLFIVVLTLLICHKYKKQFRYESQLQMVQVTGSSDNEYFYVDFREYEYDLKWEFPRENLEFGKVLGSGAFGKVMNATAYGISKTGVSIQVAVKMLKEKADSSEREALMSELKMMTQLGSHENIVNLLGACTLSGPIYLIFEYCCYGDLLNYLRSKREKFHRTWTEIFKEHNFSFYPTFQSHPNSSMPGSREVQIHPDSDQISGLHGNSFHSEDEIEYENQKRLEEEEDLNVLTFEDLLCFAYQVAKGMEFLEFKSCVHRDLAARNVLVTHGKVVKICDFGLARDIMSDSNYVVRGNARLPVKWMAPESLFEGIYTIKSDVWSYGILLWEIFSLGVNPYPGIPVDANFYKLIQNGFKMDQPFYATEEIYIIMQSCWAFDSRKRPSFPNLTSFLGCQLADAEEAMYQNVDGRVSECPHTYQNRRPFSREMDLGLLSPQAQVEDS
Procedure, shortened: as §1

[4] = biological target: T3, KIT kinase (Homo sapiens, UniProt P10721); experiment: Competition binding assay, KIT Kd
T3 construct: made in house; host or cells: T7 phage display or HEK-293 cells
T3 sequence (P10721 26-976): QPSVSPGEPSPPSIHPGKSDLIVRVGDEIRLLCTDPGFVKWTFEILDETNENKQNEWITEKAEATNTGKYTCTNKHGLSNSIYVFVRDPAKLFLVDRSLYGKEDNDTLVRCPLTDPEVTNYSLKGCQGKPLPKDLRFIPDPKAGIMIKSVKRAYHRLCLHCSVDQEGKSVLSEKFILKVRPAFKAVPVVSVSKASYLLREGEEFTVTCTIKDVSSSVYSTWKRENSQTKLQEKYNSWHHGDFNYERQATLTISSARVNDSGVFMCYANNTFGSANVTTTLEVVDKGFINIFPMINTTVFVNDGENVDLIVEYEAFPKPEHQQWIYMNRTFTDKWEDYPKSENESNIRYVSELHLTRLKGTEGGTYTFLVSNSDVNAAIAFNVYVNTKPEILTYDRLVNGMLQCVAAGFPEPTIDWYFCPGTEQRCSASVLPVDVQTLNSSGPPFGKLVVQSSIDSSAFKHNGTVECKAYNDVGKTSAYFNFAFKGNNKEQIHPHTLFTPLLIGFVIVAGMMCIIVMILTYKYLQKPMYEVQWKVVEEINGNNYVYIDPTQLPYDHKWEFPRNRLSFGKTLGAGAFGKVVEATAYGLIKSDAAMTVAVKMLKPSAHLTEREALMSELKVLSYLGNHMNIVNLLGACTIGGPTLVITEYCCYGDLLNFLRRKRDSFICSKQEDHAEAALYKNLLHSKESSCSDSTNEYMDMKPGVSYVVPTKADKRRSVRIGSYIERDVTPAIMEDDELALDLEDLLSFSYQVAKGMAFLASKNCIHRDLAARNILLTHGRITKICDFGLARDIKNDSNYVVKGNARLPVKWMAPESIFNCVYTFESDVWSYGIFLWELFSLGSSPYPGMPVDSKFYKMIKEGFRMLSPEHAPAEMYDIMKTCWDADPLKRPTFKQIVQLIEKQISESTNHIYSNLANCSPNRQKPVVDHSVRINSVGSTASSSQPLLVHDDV
Procedure, shortened: as §1

[5] = tested on: MV4-11 cells; experiment: MV4-11 cell proliferation assay (Alamar Blue); type: cell-based; conditions: Homo sapiens, MV4-11, 72 h, 3 days incubation
Procedure, shortened: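 Viability readout: Alamar Blue fluorescence, ex 560/em 590 nm, 3 h after reagent addition, after 3-day exposure of 64,000 MV4-11 cells per well to a 9-point half-log compound series in 0.5% FBS Iscove's. IC50 from duplicate averages, as 50% proliferation inhibition relative to negative control.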

Structure (SMILES) | Kinase specificty: S(10)-386 panel [1] | Kd [2] [nM] | Kd [3] [nM] | Kd [4] [nM] | IC50 [5] [nM]
CS(=O)(=O)O.Nc1ccc(-c2ccc(CC(=O)Nc3cc(C4(C(F)(F)F)CC4)on3)c(F)c2)cn1 [Example 139, 5-(3-fluoro-4-(2-oxo-2-(5-(1-(trifluoromethyl)cyclopropyl)isoxazol-3-ylamino)ethyl)phenyl)pyridin-2-aminium methanesulfonate] | B (0.1<B≦0.2 nM) | ≤ 10 | ≤ 1 | 1 to 10 | ≤ 1
CC1(c2cc(NC(=O)Cc3ccc(-c4ccc(N)nc4F)cc3)no2)COC1 [Example 140, 2-(4-(6-amino-2-fluoropyridin-3-yl)phenyl)-N-(5-(3-methyloxetan-3-yl)isoxazol-3-yl)acetamide] | A (A≦0.1) | ≤ 10 | ≤ 1 | 1 to 10 | 10 to 100
CC(C)(C)c1cc(NC(=O)Cc2ccc(-c3cnc4[nH]c(=O)oc4c3)cc2)no1 [Example 141, N-(5-tert-butylisoxazol-3-yl)-2-(4-(2-oxo-2,3-dihydrooxazolo[4,5-b]pyridin-6-yl)phenyl)acetamide] | B (0.1<B≦0.2 nM) | 10 to 100 | 1 to 10 | 1 to 10 | 1 to 10
CC(C)(c1cc(NC(=O)Cc2ccc(-c3ccc(N)nc3F)cc2)no1)C(F)(F)F.CS(=O)(=O)O [Example 142, 6-fluoro-5-(4-(2-oxo-2-(5-(1,1,1-trifluoro-2-methylpropan-2-yl)isoxazol-3-ylamino)ethyl)phenyl)pyridin-2-aminium methanesulfonate] | A (A≦0.1) | ≤ 10 | ≤ 1 | 1 to 10 | ≤ 1
CS(=O)(=O)O.Nc1ccc(-c2ccc(CC(=O)Nc3cc(C4CCC4)no3)cc2)cn1 [Example 143, 5-(4-(2-((3-cyclobutylisoxazol-5-yl)amino)-2-oxoethyl)phenyl)pyridin-2-aminium methanesulfonate] | A (A≦0.1) | ≤ 10 | ≤ 1 | ≤ 1 | 1 to 10
CC1(c2cc(NC(=O)Cc3ccc(-c4ccc(N)nc4)cc3)no2)CCC1.CS(=O)(=O)O [Example 144, 5-(4-(2-((5-(1-methylcyclobutyl)isoxazol-3-yl)amino)-2-oxoethyl)phenyl)pyridin-2-aminium methanesulfonate] | B (0.1<B≦0.2 nM) | ≤ 10 | ≤ 1 | ≤ 1 | ≤ 1
CS(=O)(=O)O.Cc1cc(-c2ccc(CC(=O)Nc3cc(C4(C)COC4)on3)cc2)cnc1N [Example 145, 3-methyl-5-(4-(2-((5-(3-methyloxetan-3-yl)isoxazol-3-yl)amino)-2-oxoethyl)phenyl)pyridin-2-aminium methanesulfonate] | A (A≦0.1) | ≤ 10 | ≤ 1 | 1 to 10 | 10 to 100
CC1(c2cc(NC(=O)Cc3ccc(-c4cnc(N)c(F)c4)cc3)no2)COC1.CS(=O)(=O)O [Example 146, 3-fluoro-5-(4-(2-((5-(3-methyloxetan-3-yl)isoxazol-3-yl)amino)-2-oxoethyl)phenyl)pyridin-2-aminium methanesulfonate] | A (A≦0.1) | ≤ 10 | ≤ 1 | ≤ 1 | 1 to 10
CC(C)(C)c1cc(NC(=O)Cc2ccc(-c3cnc4[nH]c(=O)[nH]c4c3)cc2)no1 [Example 147, N-(5-tert-butylisoxazol-3-yl)-2-(4-(2-oxo-2,3-dihydro-1H-imidazo[4,5-b]pyridin-6-yl)phenyl)acetamide] | B (0.1<B≦0.2 nM) | ≤ 10 | 1 to 10 | 1 to 10 | ≤ 1
CC(C)(C)c1cc(NC(=O)Cc2ncc(-c3ccc(N)nc3)cc2F)no1.CS(=O)(=O)O [Example 148, 6′-(2-(5-tert-butylisoxazol-3-ylamino)-2-oxoethyl)-5′-fluoro-3,3′-bipyridin-6-aminium methanesulfonate] | A (A≦0.1) | ≤ 10 | ≤ 1 | ≤ 1 | 1 to 10
Nc1ccc(-c2ccc(CC(=O)Nc3cc(C4(C(F)F)CC4)on3)cc2)cn1 [Example 149, 2-(4-(6-aminopyridin-3-yl)phenyl)-N-(5-(1-(difluoromethyl)cyclopropyl)isoxazol-3-yl)acetamide] | B (0.1<B≦0.2 nM) | ≤ 10 | ≤ 1 | ≤ 1 | 1 to 10
CC(C)(C)c1cc(NC(=O)Cc2ccc(-c3cnc(N)cc3Cl)cc2)no1.CS(=O)(=O)O [Example 150, 5-(4-(2-(5-tert-butylisoxazol-3-ylamino)-2-oxoethyl)phenyl)-4-chloropyridin-2-aminium methanesulfonate] | A (A≦0.1) | ≤ 10 | ≤ 1 | 1 to 10 | 1 to 10
CC(C)(C)c1cc(NC(=O)Cc2ccc(-c3cnc(N)cc3F)cc2)no1.CS(=O)(=O)O [Example 151, 5-(4-(2-(5-tert-butylisoxazol-3-ylamino)-2-oxoethyl)phenyl)-4-fluoropyridin-2-aminium methanesulfonate] | B (0.1<B≦0.2 nM) | ≤ 10 | ≤ 1 | 10 to 100 | 1 to 10
CC(C)(C)c1cc(NC(=O)Cc2ccc(-c3cc(F)c(N)nc3F)cc2)no1.CS(=O)(=O)O [Example 152, 5-(4-(2-(5-tert-butylisoxazol-3-ylamino)-2-oxoethyl)phenyl)-3,6-difluoropyridin-2-aminium methanesulfonate] | A (A≦0.1) | ≤ 10 | ≤ 1 | 1 to 10 | ≤ 1
CC(F)(F)C1(c2cc(NC(=O)Cc3ccc(-c4ccc(N)nc4)cc3)no2)CC1 [Example 153] | B (0.1<B≦0.2 nM) | ≤ 10 | ≤ 1 | 1 to 10 | ≤ 1
CC(C)(C)c1cc(NC(=O)Cc2ccc(-c3ccc(N)nc3)nc2)no1 [Example 155] | A (A≦0.1) | 100 to 500 | ≤ 1 | ≤ 1 | 10 to 100
CC(C)(C)c1cc(NC(=O)Cc2ccc(-c3cnc(N)cc3C(F)(F)F)cc2)no1 [Example 156] | A (A≦0.1) | 10 to 100 | ≤ 1 | 1 to 10 | 10 to 100
COc1cc(N)ncc1-c1ccc(CC(=O)Nc2cc(C(C)(C)C)on2)cc1 [Example 157] | A (A≦0.1) | 10 to 100 | ≤ 1 | 1 to 10 | 1 to 10
Cc1cc(-c2ccc(CC(=O)Nc3cc(C4(C)CC4)on3)cc2)cnc1N [Example 158] | A (A≦0.1) | ≤ 10 | ≤ 1 | ≤ 1 | 1 to 10
CC(F)(F)C1(c2cc(NC(=O)Cc3ccc(-c4ccc(N)nc4F)cc3)no2)CC1 [Example 159] | A (A≦0.1) | ≤ 10 | 1 to 10 | 1 to 10 | ≤ 1
CC1(c2cc(NC(=O)Cc3ccc(-c4cnc(N)c(Cl)c4)cc3)no2)CC1 [Example 160] | B (0.1<B≦0.2 nM) | ≤ 10 | ≤ 1 | ≤ 1 | ≤ 1
CC1(c2cc(NC(=O)Cc3ccc(-c4cnc(N)c(C(F)(F)F)c4)cc3)no2)CC1 [Example 161] | B (0.1<B≦0.2 nM) | ≤ 10 | ≤ 1 | 1 to 10 | ≤ 1
